Laboratory results: patent US12134620B2 (ARAXES PHARMA LLC, priority 2018, dated 2024)

molecular target: T1, KRAS G12C 1-169, his-tagged protein, GDP-loaded (Homo sapiens, UniProt P01116, G12C); experiment: Biochemical assay: covalent modification of KRAS G12C, analysed by mass spectrometry (RapidFire/TOF or Q-Exactive); format: binding; details: Modification activity, modification percentage from MS peak intensities
T1 construct: KRAS G12C 1-169, his-tagged protein, GDP-loaded; His tag
Procedure: Test compounds are prepared as 10 mM stock solutions in DMSO (Fisher cat. #BP-231-100). KRAS G12C 1-169, his-tagged protein, GDP-loaded is diluted to 2 μM or 0.5 μM in buffer (20 mM Hepes, 150 mM NaCl, 1 mM MgCl2). Compounds are tested for activity as follows:
Compounds are diluted to 50× final test concentration in DMSO in 96-well storage plates. Compound stock solutions are vortexed before use and observed carefully for any sign of precipitation. Dilutions are as follow: • For 32 μM final compound concentration, compounds are diluted to 1600 μM (3 μL 10 mM compound stock+15.75 μL DMSO and mixed well by pipetting. • For 8 μM final compound concentration, compounds are diluted to 400 μM (2 μL 10 mM compound stock+48 μL DMSO) and mixed well by pipetting. 49 μL of the stock protein solution is added to each well of a 96-well PCR plate (Fisher cat #1423027). 1 μl of the diluted 50× compounds are added to appropriate wells in the PCR plate using 12-channel pipettor. Reactions are mixed carefully and thoroughly by pipetting up/down with a 200 μL multi-channel pipettor. The plate is sealed well with aluminum plate seal, and protein and compound are allowed to react for a desired amount of time. 5 μL of 2% formic acid (Fisher cat #A117) in de-ionized H2O is then added to each well followed by mixing with a pipette to quench the reaction. The plate is then resealed with aluminum seal and stored frozen on dry ice until analyzed as described below.
The above described assays are analyzed by mass spectrometry according to one of the following two procedures:
The MS instrument is set to positive polarity, 2 GHz resolution, and low mass (1700) mode and allowed to equilibrate for 30 minutes. The instrument is then calibrated, switched to acquisition mode and the appropriate method loaded.
After another 30 minute equilibration time, a blank batch (i.e., buffer) is run to ensure equipment is operating properly. The samples are thawed at 37° C. for 10 minutes, briefly centrifuged, and transfer to the bench top. Wells A1 and H12 are spiked with 1 μL 500 μM internal standard peptide, and the plates centrifuged at 2000×g for 5 minutes. The method is then run and masses of each individual well recorded.
The masses (for which integration data is desired) for each well are pasted into the platemap and exported from the analysis. Masses for the internal standards are exported as well. The data at 50 ppm is extracted for the +19 charge state, and identity of well A1 is assigned using the internal standard spike and integrated. Peak data is exported as a TOF list and the above steps are repeated individually, for the +20, +21, +22, +23, +24, and +25 charge states.
The masses and peak intensities of KRAS G12C protein species are measured using a Dionex RSLCnano system (Thermo Scientific) connected to a Q Exactive Plus mass spectrometer (Thermo Scientific).
20 μL of sample is each loaded onto a Aeris™ 3.6 μm WIDEPORE C4 200 Å, LC Column 50×2.1 mm column maintained at 40° C. at a flow rate of 600 μL/min with 80% Solvent A (0.1% formic acid in H2O) and 20% Solvent B (0.1% formic acid in acetonitrile). The liquid chromatography conditions are 20% solvent B for 1 minute, 20% to 60% solvent B for 1.5 minutes, 60% to 90% solvent for 0.5 minute, 90% solvent B for 0.2 minute, 90% to 20% solvent B for 0.2 minute, and then equilibrated for 1.6 minute before the following sample injection. The flow rate is maintained at 600 μL/min throughout the sample analysis.
The mass spectrometer is operated in profile mode at a resolution of 17500, 5 microscans, using 50 msec max injection time and an AGC target of 1×10^6, and a full mass range from 800-1850 m/z is recorded. The intact protein mode is applied for optimal ion transfer and maximum sensitivity. The ionization method is electrospray ionization, which used a spray voltage of 4 kV, sheath gas flow set to 50 AU, auxiliary gas flow set to 10 AU and sweep gas flow set to 1 AU. […]

| SMILES | Binding % |
| --- | --- |
| C=CC(=O)N1CC2(CCN(c3nc(N4CCOC(c5ccccc5)C4)nc(-c4c(C)ccc5[nH]ncc45)c3C#N)C2)C1 (stereo not shown) [Compound I-109, 4-(2-acryloyl-2,6-diazaspiro[3.4]octan-6-yl)-6-(5-methyl-1H-indazol-4-yl)-2-(2-phenylmorpholino)py-rimidine-5-carbonitrile] | ++ (++ indicates binding activity from 50 to 85%) |
| C=CC(=O)N1CC2(CCN(c3nc(OCc4cccc(C(F)(F)F)c4)nc(-c4c(C)ccc5cnn(C)c45)c3C#N)C2)C1 [Compound I-158, 4-(2-acryloyl-2,6-diazaspiro[3.4]octan-6-yl)-6-(1,6-dimethyl-1H-indazol-7-yl)-2-((3-(trifluoromethyl)ben-zyl)oxy)pyrimidine-5-carbonitrile] | ++ (++ indicates binding activity from 50 to 85%) |
| C=CC(=O)N1CC2(CCN(c3ccnc(-c4c(C)ccc5[nH]ncc45)n3)C2)C1 [Compound I-274, 1-(6-(2-(5-methyl-1H-indazol-4-yl)pyrimidin-4-yl)-2,6-diazaspiro[3.4]octan-2-yl)prop-2-en-1-one] | + (+ indicates binding activity greater than 0% and up to 50%) |
| C=CC(=O)N1CC2(CCN(c3nc(N4CCOCC4)nc(-c4c(C)ccc5[nH]ncc45)c3C#N)C2)C1 [Compound I-76, 4-(2-acryloyl-2,6-diazaspiro[3.4]octan-6-yl)-6-(5-methyl-1H-indazol-4-yl)-2-morpholinopyrimidine-5-carbonitrile] | ++ (++ indicates binding activity from 50 to 85%) |
| C=CC(=O)N1CC2(CCN(c3ncnc(-c4c(C)ccc5[nH]ncc45)c3C#N)CC2)C1C(C)C (stereo not shown) [Compound I-281, 4-(2-acryloyl-1-isopropyl-2,7-diazaspiro[3.5]nonan-7-yl)-6-(5-methyl-1H-indazol-4-yl)pyrimidine-5-carbonitrile] | + (+ indicates binding activity greater than 0% and up to 50%) |
| C=CC(=O)N1CC2(CCN(c3nc(OCc4ccc(N5CCOCC5)cn4)nc(-c4c(C)ccc5cnn(C)c45)c3C#N)C2)C1 [Compound I-162, 4-(2-acryloyl-2,6-diazaspiro[3.4]octan-6-yl)-6-(1,6-dimethyl-1H-indazol-7-yl)-2-((5-morpholinopyridin-2-yl)methoxy)pyrimidine-5-carbonitrile] | ++ (++ indicates binding activity from 50 to 85%) |
| C=CC(=O)N1CC2(CCN(c3ncnc(-c4c(O)cccc4F)c3C#N)CC2)C1 [Compound I-240, 4-(2-acryloyl-2,7-diazaspiro[3.5]nonan-7-yl)-6-(2-fluoro-6-hydroxyphenyl)pyri-midine-5-carbonitrile] | + (+ indicates binding activity greater than 0% and up to 50%) |
| C=CC(=O)N1CC2(CCN(c3ncnc(-c4c(C)ccc5[nH]ncc45)c3F)C2)C1 [Compound I-239, 1-(6-(5-fluoro-6-(5-methyl-1H-indazol-4-yl)pyrimidin-4-yl)-2,6-diazaspiro[3.4]octan-2-yl)prop-2-en-1-one] | + (+ indicates binding activity greater than 0% and up to 50%) |
| C=CC(=O)N1CC2(CCN(c3nc(OCc4ncccn4)nc(-c4c(C)ccc5[nH]ncc45)c3C#N)C2)C1 [Compound I-154, 4-(2-acryloyl-2,6-diazaspiro[3.4]octan-6-yl)-6-(5-methyl-1H-indazol-4-yl)-2-(pyrimidin-2-ylmethoxy)pyrimidine-5-carbonitrile] | ++ (++ indicates binding activity from 50 to 85%) |
| C=CC(=O)N1CC2(CCN(c3ncnc(-c4c(C)ccc5[nH]ncc45)c3C(N)=O)C2)C1 [Compound I-253, 4-(2-acryloyl-2,6-diazaspiro[3.4]octan-6-yl)-6-(5-methyl-1H-indazol-4-yl)pyrimidine-5-carboxamide] | + (+ indicates binding activity greater than 0% and up to 50%) |
| C=CC(=O)N1CC2(CCN(c3nc(N4CCOCC4)nc(-c4c(C)ccc5[nH]nc(N)c45)c3C#N)C2)C1 [Compound I-33, 4-(2-acryloyl-2,6-diazaspiro[3.4]octan-6-yl)-6-(3-amino-5-methyl-1H-indazol-4-yl)-2-morpholinopyrimidine-5-carbonitrile] | +++ (+++ indicates binding activity greater than 85%) |
| C=CC(=O)N1CC2(CCN(c3ncnc(-c4c(C)ccc5[nH]ncc45)c3OC)C2)C1 [Compound I-243, 1-(6-(5-methoxy-6-(5-methyl-1H-indazol-4-yl)pyrimidin-4-yl)-2,6-diazaspiro[3.4]octan-2-yl)prop-2-en-1-one] | + (+ indicates binding activity greater than 0% and up to 50%) |
| C=CC(=O)N1CC2(CCN(c3nc(OC[C@@H]4CCCN4C)nc(-c4c(C)ccc5cn[nH]c45)c3C#N)C2)C1 [Compound I-82, 4-(2-acryloyl-2,6-diazaspiro[3.4]octan-6-yl)-6-(6-methyl-1H-indazol-7-yl)-2-(((S)-1-methylpyrrolidin-2-yl)methoxy)pyrimidine-5-carbonitrile] | + (+ indicates binding activity greater than 0% and up to 50%) |
| C=CC(=O)N1CC2(CCN(c3nc(N4CCC[C@@H]4CO)nc(-c4c(C)ccc5[nH]ncc45)c3C#N)C2)C1 [Compound I-209, 4-(2-acryloyl-2,6-diazaspiro[3.4]octan-6-yl)-2-((R)-2-(hydroxymethyl)pyrro-lidin-1-yl)-6-(5-methyl-1H-indazol-4-yl)pyrimidine-5-carbonitrile] | ++ (++ indicates binding activity from 50 to 85%) |
| CC#CC(=O)N1CC2(CCN(c3nc(OCc4ccccn4)nc(-c4c(C)ccc5[nH]ncc45)c3C#N)C2)C1 [Compound I-99, 4-(2-(but-2-ynoyl)-2,6-diazaspiro[3.4]octan-6-yl)-6-(5-methyl-1H-indazol-4-yl)-2-(pyridin-2-ylmethoxy)pyrimidine-5-carbonitrile] | + (+ indicates binding activity greater than 0% and up to 50%) |
| C=CC(=O)N1CC2(CCN(c3nc(N4CCC5(CCN(C)CC5)C4)nc(-c4c(C)ccc5[nH]ncc45)c3C#N)C2)C1 [Compound I-32, 4-(2-acryloyl-2,6-diazaspiro[3.4]octan-6-yl)-6-(5-methyl-1H-indazol-4-yl)-2-(8-methyl-2,8-diazaspiro[4.5]decan-2-yl)pyrimidine-5-carbonitrile] | ++ (++ indicates binding activity from 50 to 85%) |
| C=CC(=O)N1CC2(CCN(c3cc(-c4c(C)ccc5cn[nH]c45)ncn3)C2)C1 [Compound I-226, 1-(6-(6-(6-methyl-1H-indazol-7-yl)pyrimidin-4-yl)-2,6-diazaspiro[3.4]octan-2-yl)prop-2-en-1-one] | + (+ indicates binding activity greater than 0% and up to 50%) |
| C=CC(=O)N1CC2(CCN(c3nc(OCc4cnc(OC)nc4)nc(-c4c(C)ccc5[nH]ncc45)c3C#N)C2)C1 [Compound I-149, 4-(2-acryloyl-2,6-diazaspiro[3.4]octan-6-yl)-2-((2-methoxypyrimidin-5-yl)methoxy)-6-(5-methyl-1H-indazol-4-yl)pyrimidine-5-carbonitrile] | +++ (+++ indicates binding activity greater than 85%) |
| C=CC(=O)N1CC2(CCN(c3cnc(OCCc4ccccc4)c(-c4c(C)ccc5[nH]ncc45)c3C#N)C2)C1 [Compound I-221, 5-(2-acryloyl-2,6-diazaspiro[3.4]octan-6-yl)-3-(5-methyl-1H-indazol-4-yl)-2-phenethoxyisonicoti-nonitrile] | ++ (++ indicates binding activity from 50 to 85%) |
